# According to patent US20220144809A1, “COMPOUNDS AND METHODS FOR THE TARGETED DEGRADATION OF ANDROGEN RECEPTOR AND ASSOCIATED METHODS OF USE” (Arvinas Operations, Inc., priority 2020, published 2022):
# Test system: Androgen Receptor (AR)
# Assay: Androgen Receptor ELISA assay (AR degradation in LNCaP and/or VCaP cells)
# Type: cell-based
# Details: degradation of AR, 5 hours incubation, R1881 in media
# Experimental: Assay for Testing AR Degradation Driven by Compounds of the Present Disclosure.
# Androgen Receptor ELISA Assay. Compounds were evaluated in the following assay in LNCaP and/or VCaP cells utilizing similar protocols. The protocols used with VCaP cells are described below. The androgen receptor ELISA assay was performed using PathScan AR Sandwich ELISA (Cell Signaling Catalog#12850) according to the following assay steps.
# VCaP cells were seeded at 40,000 cells/well at a volume of 100 μL/well in VCaP assay medium [Phenol red free RPMI (Gibco Cat#11835-030); 5% Charcoal Stripped (Dextran treated) FBS (Omega Scientific, Cat#FB-04); 1% penstrep (Life Technologies, Gibco Cat#: 10378-016)] in Corning 3904 plates. The cells were grown for a minimum of 3 days.
# First, cells were dosed with compounds diluted in […]—in a polypropylene plate avoiding the use of outer columns according to the following protocol: (1)(i) 1000× stock plate in DMSO was made; (ii) 20 mM stock diluted 1/6.7 with DMSO (5 μL+28.3 μL DMSO)=3 mM into row H; (iii) serial dilutions in ½ log doses (10 μL of bifunctional compound+20 μL DMSO) was performed from row H towards row B with row A being reserved for DMSO; (iv) 7 doses total (final concentration in this 1000× plate will be 3 mM, 1 mM, 333 μM, 111 μM, etc). (2)(i) A 10× stock plate in media was made; (ii) 2.5 μL of the 1000× stock was trasnferred to a new 10× stock plate (use 12 channel pipet, start at A (DMSO control) work thru H. When 247.5 μL of media was added to this plate, it served as a 10× stock; (iii) made media+1 nM R1881 for making 10× stock plate; (iv) added 247.5 μL of media with 1 nM R1881 to each well of the 10× stock plate, mix.
# Then 22 μL of 10× stock was added to cells and incubated for 5 hours. 1× Cell Signaling Cell lysis buffer was made (Catalogue #9803; comes with the kit) to have […], and was kept on ice. Media was aspirated, and 100 μL 1× cell lysis buffer/well was added. The cells were placed on a shaker located in a cold room for 10 minutes and shaken at speed 7. The lysate mixture was mix and 20 μL transferred to 100 μl of Diluent in ELISA plate (0.15 μg/ml-0.075 μg/ml). The lysate-diluent mixture was store at 4° C. overnight on a shaker located in a cold room at speed 5 (gentle swirl).
# The lysate-diluent mixture was shaken for 30 minutes at 37° C. The mouse AR antibody, anti-mouse antibody, TMB, and STOP solution were allowed to come to room temperature. The 1×ELISA buffer included in kit was made and loaded in reservoir. Media from the plate was discarded, the ELISA plate was tapped hard on paper towel, and washed 4×200 μl ELISA wash buffer using a plate washer for the first three washes and an eight channel aspirator for the fourth wash to more thoroughly aspirate the solution.
# Next, 100 μL/well of mouse AR detection Ab was added; the plate was covered and shaken at 37° C. for 1 hour; media was discarded from the plates, the plates tapped on a paper towel and washed four times with 200 μL ELISA wash buffer with a plate washer for the first three washes and an eight channel aspirator for the fourth wash; 100 μL/well of anti-mouse—HRP conjugated Ab (comes with the kit) was added; the plates wascover and shaken at 37° C. for 30 minutes; the TMB reagent was allowed to come to room temperature; the media from the plate was discarded, the plates tapped on paper towel, and washed four times with 200 μL ELISA wash buffer with a plate washer for the first three washes and an eight channel aspirator for the fourth wash; plates were tapped on paper towl; 100 μL TMB was added to each well and the plate shaken for 2 minutes—while watching color. STOP solution (100 μL) was added when light blue color developed. The plates were shake and read at 450 nm.
# Data was analyzed and plotted using GraphPad Prism software. Exemplary compounds of Table 1 were assayed and the data shown below in Table 2. […]
Structure (SMILES),DC50,Dmax Code
"N#Cc1ncc(N2C(=O)C3(CCC3)N(c3ccc(CCCCCN4CCN(c5ccc6c(c5)C(=O)N(C5CCC(=O)NC5=O)C6=O)CC4)cc3)C2=S)cc1Cl (stereo not shown) [Compound 1, 3-chloro-5-(5-(4-(5-(4-(2-(2,6-dioxopiperidin-3-yl)-1,3-dioxoisoindolin-5-yl)piperazin-1-yl)pentyl)phenyl)-8-oxo-6-thioxo-5,7-diazaspiro[3.4]octan-7-yl)picolinonitrile]",< 1 nM,A (A≥70)
"N#Cc1ncc(N2C(=O)C3(CCC3)N(c3ccc(N4CCC(CN5CCN(c6ccc7c(c6)C(=O)N(C6CCC(=O)NC6=O)C7)CC5)CC4)cc3)C2=S)cc1Cl (stereo not shown) [Compound 2, 3-chloro-5-(5-(4-(4-((4-(2-(2,6-dioxopiperidin-3-yl)-3-oxoisoindolin-5-yl)piperazin-1-yl)methyl)piperidin-1-yl)phenyl)-8-oxo-6-thioxo-5,7-diazaspiro[3.4]octan-7-yl)picolinonitrile]",< 1 nM,A (A≥70)
"CC1(C)C(=O)N(c2ccc(C#N)c(C(F)(F)F)c2)C(=S)N1Cc1ccc(N2CCC(CN3CCN(c4ccc5c(c4)C(=O)N(C4CCC(=O)NC4=O)C5=O)CC3)CC2)nc1 (stereo not shown) [Compound 3, 4-(3-((6-(4-((4-(2-(2,6-dioxopiperidin-3-yl)-1,3-dioxoisoindolin-5-yl)piperazin-1-yl)methyl)piperidin-1-yl)pyridin-3-yl)methyl)-4,4-dimethyl-5-oxo-2-thioxoimidazolidin-1-yl)-2-(trifluoromethyl)benzonitrile]",< 1 nM,A (A≥70)
"CCN(CC1CCN(c2ccc(CN3C(=S)N(c4ccc(C#N)c(C(F)(F)F)c4)C(=O)C3(C)C)cn2)CC1)[C@H]1C[C@H](Oc2ccc3c(c2)C(=O)N(C2CCC(=O)NC2=O)C3=O)C1 (stereo partly shown) [Compound 4, 4-(3-((6-(4-((((1r,3r)-3-((2-(2,6-dioxopiperidin-3-yl)-1,3-dioxoisoindolin-5-yl)oxy)cyclobutyl)(ethyl)amino)methyl)piperidin-1-yl)pyridin-3-yl)methyl)-4,4-dimethyl-5-oxo-2-thioxoimidazolidin-1-yl)-2-(trifluoromethyl)benzonitrile]",< 1 nM,C (C<50)
"N#Cc1ccc(N2C(=O)C3(CCC3)N(c3ccc(N4CCC(CN5CCN(c6ccc7c(c6)C(=O)N(C6CCC(=O)NC6=O)C7=O)CC5)CC4)c(F)c3)C2=S)cc1Cl (stereo not shown) [Compound 5, 2-chloro-4-(5-(4-(4-((4-(2-(2,6-dioxopiperidin-3-yl)-1,3-dioxoisoindolin-5-yl)piperazin-1-yl)methyl)piperidin-1-yl)-3-fluorophenyl)-8-oxo-6-thioxo-5,7-diazaspiro[3.4]octan-7-yl)benzonitrile]",< 1 nM,A (A≥70)
"COc1cc(N2C(=O)C3(CCC3)N(c3ccc(N4CCC(CN5CCN(c6ccc7c(c6)C(=O)N(C6CCC(=O)NC6=O)C7=O)CC5)CC4)c(F)c3)C2=S)ccc1C#N (stereo not shown) [Compound 6, 4-(5-(4-(4-((4-(2-(2,6-dioxopiperidin-3-yl)-1,3-dioxoisoindolin-5-yl)piperazin-1-yl)methyl)piperidin-1-yl)-3-fluorophenyl)-8-oxo-6-thioxo-5,7-diazaspiro[3.4]octan-7-yl)-2-methoxybenzonitrile]",1 to 10 nM,A (A≥70)
"COc1cc(N2C(=O)C3(CCC3)N(c3ccc(N4CCC(CN5CCN(c6ccc7c(c6)C(=O)N(C6CCC(=O)NC6=O)C7=O)CC5)CC4)cc3)C2=S)ccc1C#N (stereo not shown) [Compound 7, 4-(5-(4-(4-((4-(2-(2,6-dioxopiperidin-3-yl)-1,3-dioxoisoindolin-5-yl)piperazin-1-yl)methyl)piperidin-1-yl)phenyl)-8-oxo-6-thioxo-5,7-diazaspiro[3.4]octan-7-yl)-2-methoxybenzonitrile]",1 to 10 nM,B (50≤B<70)
"CC(C)N(C[C@H]1C[C@H](Oc2ccc(N3C(=S)N(c4cnc(C#N)c(C(F)(F)F)c4)C(=O)C34CCC4)cn2)C1)[C@H]1C[C@H](Oc2ccc3c(c2)C(=O)N(C2CCC(=O)NC2=O)C3=O)C1 (stereo partly drawn) [Compound 8, 5-(5-(6-((1R,3r)-3-((((1r,3R)-3-((2-(2,6-dioxopiperidin-3-yl)-1,3-dioxoisoindolin-5-yl)oxy)cyclobutyl)(isopropyl)amino)methyl)cyclobutoxy)pyridin-3-yl)-8-oxo-6-thioxo-5,7-diazaspiro[3.4]octan-7-yl)-3-(trifluoromethyl)picolinonitrile]",1 to 10 nM,C (C<50)
"N#Cc1ccc(N2C(=O)C3(CCC3)N(c3ccc(N4CCC(CN5CCN(c6ccc7c(c6)C(=O)N(C6CCC(=O)NC6=O)C7=O)CC5)CC4)cc3)C2=S)cc1Cl (stereo not shown) [Compound 9, 2-chloro-4-(5-(4-(4-((4-(2-(2,6-dioxopiperidin-3-yl)-1,3-dioxoisoindolin-5-yl)piperazin-1-yl)methyl)piperidin-1-yl)phenyl)-8-oxo-6-thioxo-5,7-diazaspiro[3.4]octan-7-yl)benzonitrile]",1 to 10 nM,A (A≥70)
"N#Cc1ncc(N2C(=O)C3(CCC3)N(c3ccc(OC4CCN(CC5CCN(c6ccc7c(c6)C(=O)N(C6CCC(=O)NC6=O)C7=O)CC5)CC4)c(F)c3)C2=S)cc1Cl (stereo not shown) [Compound 10, 3-chloro-5-(5-(4-((1-((1-(2-(2,6-dioxopiperidin-3-yl)-1,3-dioxoisoindolin-5-yl)piperidin-4-yl)methyl)piperidin-4-yl)oxy)-3-fluorophenyl)-8-oxo-6-thioxo-5,7-diazaspiro[3.4]octan-7-yl)picolinonitrile]",1 to 10 nM,A (A≥70)
N#Cc1ncc(N2C(=O)C3(CCC3)N(c3ccc(C4CCN(CC5CCN(c6ccc7c(c6)C(=O)N(C6CCC(=O)NC6=O)C7)CC5)CC4)cc3)C2=S)cc1Cl (stereo not shown) [Compound 11],1 to 10 nM,C (C<50)
"N#Cc1ncc(N2C(=O)C3(CCC3)N(c3ccc(OC4CCN(CC5CCN(c6ccc7c(c6)C(=O)N(C6CCC(=O)NC6=O)C7=O)CC5)CC4)nc3)C2=S)cc1C(F)(F)F (stereo not shown) [Compound 12, 5-(5-(6-((1-((1-(2-(2,6-dioxopiperidin-3-yl)-1,3-dioxoisoindolin-5-yl)piperidin-4-yl)methyl)piperidin-4-yl)oxy)pyridin-3-yl)-8-oxo-6-thioxo-5,7-diazaspiro[3.4]octan-7-yl)-3-(trifluoromethyl)picolinonitrile]",1 to 10 nM,B (50≤B<70)
"CC(C)N(CC1CCN(c2ccc(N3C(=S)N(c4cnc(C#N)c(C(F)(F)F)c4)C(=O)C34CCC4)cn2)CC1)[C@H]1C[C@H](Oc2ccc3c(c2)C(=O)N(C2CCC(=O)NC2=O)C3=O)C1 (stereo partly shown) [Compound 13, 5-(5-(6-(4-((((1r,3r)-3-((2-(2,6-dioxopiperidin-3-yl)-1,3-dioxoisoindolin-5-yl)oxy)cyclobutyl)(isopropyl)amino)methyl)piperidin-1-yl)pyridin-3-yl)-8-oxo-6-thioxo-5,7-diazaspiro[3.4]octan-7-yl)-3-(trifluoromethyl)picolinonitrile]",1 to 10 nM,C (C<50)
"CC1(C)C(=O)N(c2ccc(C#N)c(C(F)(F)F)c2)C(=S)N1Cc1ccc(OCCN2CCC(CN3CCN(c4ccc5c(c4)C(=O)N(C4CCC(=O)NC4=O)C5=O)CC3)CC2)nc1 (stereo not shown) [Compound 14, 4-(3-((6-(2-(4-((4-(2-(2,6-dioxopiperidin-3-yl)-1,3-dioxoisoindolin-5-yl)piperazin-1-yl)methyl)piperidin-1-yl)ethoxy)pyridin-3-yl)methyl)-4,4-dimethyl-5-oxo-2-thioxoimidazolidin-1-yl)-2-(trifluoromethyl)benzonitrile]",1 to 10 nM,B (50≤B<70)
